From patent US6593334B1, “Camptothecin-taxoid conjugates as antimitotic and antitumor agents” (The University of North Carolina at Chapel Hill, priority 2002, dated 2003)

Key:
[1] = system: HCT-8 (ileocecal adenocarcinoma); test: Human tumor cell replication assay (sulforhodamine B), HCT-8; format: cell-based; details: HCT8 cells, three days of continuous exposure, SRB assay
Method: (§1) Human Tumor Cell Replication Assay. Compounds were tested as inhibitors of cell growth against a limited panel of solid tumor lines including KB (epidermoid carcinoma, CL 17) and a camptothecin-resistant sub-line called KB-CPT; HCT-8 (ileocecal adenocarcinoma, CCL 244); MCF-7 (breast adenocarcinoma, HTB 22); PC-3 (prostate adenocarcinoma, CRL 1435); 1A9 (ovarian carcinoma) and a paclitaxel resistant sub-line called PTX10 with mutated β-tubulin. Drug-resistant cell lines were generous gifts of Dr. Y. C. Cheng (Yale University, New Haven, Conn.) and Dr. P. Giannakakou (NIH, Bethesda, Md.). Cell lines were adapted for growth in RPMI-1640 medium supplemented with 25 mM Hepes, 2% NaHCO3, 10% (v/v) fetal calf serum and 100 μg/mL kanamycin. Cultures were maintained in a 5% CO2 atmosphere at 37° C. The sulforhodamine B microtiter plate assay described by Rubinstein et al. (1990) J. Natl. Cancer Inst. 82:1113, was used to evaluate compounds as inhibitors of cell replication. The ED50 value, the concentration of compound that inhibited cell line replication by 50% relative to control after three days of continuous exposure was interpolated from dose-response graphs fitted to data using Prizm (GraphPad software, San Diego, Calif.).
(§2) The five conjugates (16-20) were tested for cytotoxicity against a panel of human tumor cell lines (HTCL) including paclitaxel-resistant and camptothecin-resistant derivatives as described in Rubinstein et al. (1990) J. Natl. Cancer Inst. 82:1113. The results are shown in Table 2 with the values for paclitaxel (1) and camptothecin (2) given for comparison.

1A9 (ovarian carcinoma) = test: Human tumor cell replication assay (sulforhodamine B), 1A9; format: cell-based; details: IA9 cells; for Cell Line/ED50 IA9: three days of continuous exposure, SRB assay
Method: as §1, §2

[2] = system: KB-CPT (camptothecin-resistant KB sub-line); test: Human tumor cell replication assay (sulforhodamine B), KB-CPT; format: cell-based; details: camptothecin-resistant KB-CPT cells, three days of continuous exposure, SRB assay
Method: as §1, §2

[3] = system: KB (epidermoid carcinoma); test: Human tumor cell replication assay (sulforhodamine B), KB; format: cell-based; details: KB cells; for Cell Line/ED50 KB: three days of continuous exposure, SRB assay
Method: as §1, §2

[4] = system: PC-3 (prostate adenocarcinoma); test: Human tumor cell replication assay (sulforhodamine B), PC-3; format: cell-based; details: PC-3 cells, three days of continuous exposure, SRB assay
Method: as §1, §2

[5] = system: MCF-7 (breast adenocarcinoma); test: Human tumor cell replication assay (sulforhodamine B), MCF-7; format: cell-based; details: MCF-7 cells, three days of continuous exposure, SRB assay
Method: as §1, §2

[6] = system: human tumor cell lines (HTCL); test: Human tumor cell line (HTCL) panel, mean over lines; format: cell-based; details: mean from HTCL data, does not include values for drug-resistant variants
Method: as §1, §2

[7] = system: 1A9-PTX10 (paclitaxel resistant sub-line with mutated β-tubulin); test: Human tumor cell replication assay (sulforhodamine B), PTX10; format: cell-based; details: paclitaxel-resistant IA9-PTX10 cells, three days of continuous exposure, SRB assay
Method: as §1, §2

[8] = target: T1, human DNA Topoisomerase I (Homo sapiens, UniProt P11387); test: DNA Topoisomerase I activity assay (plasmid DNA relaxation); format: biochemical
T1 construct: purchased TopoGen, Columbus, Ohio
T1 sequence (P11387 1-765): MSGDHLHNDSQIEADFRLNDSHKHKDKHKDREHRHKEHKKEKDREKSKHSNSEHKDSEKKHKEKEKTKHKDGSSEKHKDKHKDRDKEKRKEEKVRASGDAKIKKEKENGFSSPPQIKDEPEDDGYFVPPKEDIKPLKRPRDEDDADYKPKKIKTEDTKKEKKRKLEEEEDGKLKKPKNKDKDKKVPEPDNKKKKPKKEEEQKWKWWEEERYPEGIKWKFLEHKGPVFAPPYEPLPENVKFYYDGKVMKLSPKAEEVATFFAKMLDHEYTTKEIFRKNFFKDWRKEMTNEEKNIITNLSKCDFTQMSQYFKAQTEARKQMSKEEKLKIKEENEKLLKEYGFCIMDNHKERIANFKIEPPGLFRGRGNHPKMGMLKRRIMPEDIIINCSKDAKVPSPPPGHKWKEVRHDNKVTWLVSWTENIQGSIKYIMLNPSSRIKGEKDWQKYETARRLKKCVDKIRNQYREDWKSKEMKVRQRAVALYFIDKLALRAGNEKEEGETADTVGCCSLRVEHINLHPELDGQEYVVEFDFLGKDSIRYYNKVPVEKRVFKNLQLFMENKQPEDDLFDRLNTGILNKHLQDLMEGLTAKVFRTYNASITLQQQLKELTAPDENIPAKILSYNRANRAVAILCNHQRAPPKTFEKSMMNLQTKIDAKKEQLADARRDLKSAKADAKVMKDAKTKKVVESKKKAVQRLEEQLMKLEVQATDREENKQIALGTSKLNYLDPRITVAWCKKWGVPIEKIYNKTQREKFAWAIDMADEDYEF
Method: DNA Topoisomerase I Activity Assay. Compounds were tested as inhibitors of enzyme catalyzed plasmid DNA relaxation. Reactions contained 0.5 μg pBR322 DNA and 0.5 U human DNA Topoisomerase I (TopoGen, Columbus, Ohio), compounds at 50 μM and buffer components described previously in Krishnan et al. (2000) Anticancer Drug Design 15:255. After 15 min at 37° C., reactions were terminated by adding proteinase K (0.1 mg/mL) and 1% (w/v) SDS. After 1 hour at 50° C., DNA was resolved on a 1% (w/v) agarose gel containing […] ethidium bromide in standard TBE buffer, and photographed under UV light using polaroid 667 film.
Conjugates 16-20 were also tested as inhibitors of human DNA topo I activity in vitro (FIG. 4) in the manner as described in Krishnan et al. (2000) Anticancer Drug Design 15:255. […] None of the conjugates inhibited DNA relaxation.

[9] = at lowest test concentration (inhibition >50%)

CC[C@@]1(O)C(=O)OCc2c1cc1n(c2=O)Cc2cc3ccccc3nc2-1 [Camptothecin, camptothecin]
Cell Line/ED50 HCT8 [1]: −9.3 log10 M | Cell Line/ED50 IA9 (1A9 (ovarian carcinoma)): −10.2 log10 M | Cell Line/ED50 KB-CPT [2]: −7.5 log10 M | Cell Line/ED50 KB [3]: −10.8 log10 M | Cell Line/ED50 PC-3 [4]: −7.1 log10 M | Cell Line/ED50 MCF-7 [5]: −7.1 log10 M | Mean ED50 [6]: −8.9 log10 M | Cell Line/ED50 IA9-PTX10 [7]: −9.4 log10 M

CCC1(O)C(=O)OCc2c1cc1n(c2=O)Cc2c-1nc1ccccc1c2C=NCCC(=O)OC1CC2OCC2(OC(C)=O)C2C(OC(=O)c3ccccc3)C3(O)CC(OC(=O)C(O)C(NC(=O)c4ccccc4)c4ccccc4)C(C)=C(C(OC(C)=O)C(=O)C12C)C3(C)C (stereo not drawn) [Compound 16]
Cell Line/ED50 HCT8 [1]: −10.6 log10 M | observed percentage inhibition (bracketed value) (1A9 (ovarian carcinoma); [9]): (76) % | Cell Line/ED50 IA9 (1A9 (ovarian carcinoma)): <−11.0 log10 M | Cell Line/ED50 KB-CPT [2]: −11.1 log10 M | observed percentage inhibition (bracketed value) [3, 9]: (67) % | Cell Line/ED50 KB [3]: <−11.0 log10 M | Cell Line/ED50 PC-3 [4]: −7.0 log10 M | Cell Line/ED50 MCF-7 [5]: −7.1 log10 M | inhibition of human DNA topo I activity in vitro [8]: only marginal activity | Mean ED50 [6]: <−9.3 log10 M | Cell Line/ED50 IA9-PTX10 [7]: −10.9 log10 M

CCC1(O)C(=O)OCc2c1cc1n(c2=O)Cc2c-1nc1ccccc1c2C=NCCCC(=O)OC1CC2OCC2(OC(C)=O)C2C(OC(=O)c3ccccc3)C3(O)CC(OC(=O)C(O)C(NC(=O)c4ccccc4)c4ccccc4)C(C)=C(C(OC(C)=O)C(=O)C12C)C3(C)C (stereo not drawn) [Compound 17]
Cell Line/ED50 HCT8 [1]: −10.0 log10 M | Cell Line/ED50 IA9 (1A9 (ovarian carcinoma)): −10.2 log10 M | Cell Line/ED50 KB-CPT [2]: −9.7 log10 M | Cell Line/ED50 KB [3]: −10.4 log10 M | Cell Line/ED50 PC-3 [4]: −7.1 log10 M | Cell Line/ED50 MCF-7 [5]: −7.1 log10 M | inhibition of human DNA topo I activity in vitro [8]: inactive | Mean ED50 [6]: −9.0 log10 M | Cell Line/ED50 IA9-PTX10 [7]: −10.5 log10 M

CCC1(O)C(=O)OCc2c1cc1n(c2=O)Cc2c-1nc1ccccc1c2C=NCCCCCC(=O)OC1CC2OCC2(OC(C)=O)C2C(OC(=O)c3ccccc3)C3(O)CC(OC(=O)C(O)C(NC(=O)c4ccccc4)c4ccccc4)C(C)=C(C(OC(C)=O)C(=O)C12C)C3(C)C (stereo not drawn) [Compound 18]
Cell Line/ED50 HCT8 [1]: −10.6 log10 M | Cell Line/ED50 IA9 (1A9 (ovarian carcinoma)): −10.0 log10 M | Cell Line/ED50 KB-CPT [2]: −8.1 log10 M | Cell Line/ED50 KB [3]: −9.3 log10 M | Cell Line/ED50 PC-3 [4]: −7.5 log10 M | Cell Line/ED50 MCF-7 [5]: −7.5 log10 M | inhibition of human DNA topo I activity in vitro [8]: only marginal activity | Mean ED50 [6]: −9.0 log10 M | Cell Line/ED50 IA9-PTX10 [7]: −10.5 log10 M

CC(=O)O[C@H]1C(=O)[C@@]2(C)[C@H]([C@H](OC(=O)c3ccccc3)[C@]3(O)C[C@H](OC(=O)[C@H](O)[C@@H](NC(=O)c4ccccc4)c4ccccc4)C(C)=C1C3(C)C)[C@]1(OC(C)=O)CO[C@@H]1C[C@@H]2O [Paclitaxel, reference compound]
Cell Line/ED50 HCT8 [1]: −7.1 log10 M | Cell Line/ED50 IA9 (1A9 (ovarian carcinoma)): −12.2 log10 M | Cell Line/ED50 KB-CPT [2]: −12.2 log10 M | Cell Line/ED50 KB [3]: −12.1 log10 M | Cell Line/ED50 PC-3 [4]: −10.3 log10 M | Cell Line/ED50 MCF-7 [5]: −13.9 log10 M | Mean ED50 [6]: −11.1 log10 M | Cell Line/ED50 IA9-PTX10 [7]: −11.7 log10 M
